Legend:
iNOS = target: T1, iNOS (Mus musculus, UniProt P29477); experiment: In vitro iNOS inhibitory effect (iNOS activity detection kit) in LPS-stimulated BV-2 cells; type: cell-based; details: compound 0.01-10 μM added 4 hours before LPS 500 ng/mL for 24 hours, FIG. 1, read-out: iNOS inhibition IC50
T1 sequence (P29477 1-1144): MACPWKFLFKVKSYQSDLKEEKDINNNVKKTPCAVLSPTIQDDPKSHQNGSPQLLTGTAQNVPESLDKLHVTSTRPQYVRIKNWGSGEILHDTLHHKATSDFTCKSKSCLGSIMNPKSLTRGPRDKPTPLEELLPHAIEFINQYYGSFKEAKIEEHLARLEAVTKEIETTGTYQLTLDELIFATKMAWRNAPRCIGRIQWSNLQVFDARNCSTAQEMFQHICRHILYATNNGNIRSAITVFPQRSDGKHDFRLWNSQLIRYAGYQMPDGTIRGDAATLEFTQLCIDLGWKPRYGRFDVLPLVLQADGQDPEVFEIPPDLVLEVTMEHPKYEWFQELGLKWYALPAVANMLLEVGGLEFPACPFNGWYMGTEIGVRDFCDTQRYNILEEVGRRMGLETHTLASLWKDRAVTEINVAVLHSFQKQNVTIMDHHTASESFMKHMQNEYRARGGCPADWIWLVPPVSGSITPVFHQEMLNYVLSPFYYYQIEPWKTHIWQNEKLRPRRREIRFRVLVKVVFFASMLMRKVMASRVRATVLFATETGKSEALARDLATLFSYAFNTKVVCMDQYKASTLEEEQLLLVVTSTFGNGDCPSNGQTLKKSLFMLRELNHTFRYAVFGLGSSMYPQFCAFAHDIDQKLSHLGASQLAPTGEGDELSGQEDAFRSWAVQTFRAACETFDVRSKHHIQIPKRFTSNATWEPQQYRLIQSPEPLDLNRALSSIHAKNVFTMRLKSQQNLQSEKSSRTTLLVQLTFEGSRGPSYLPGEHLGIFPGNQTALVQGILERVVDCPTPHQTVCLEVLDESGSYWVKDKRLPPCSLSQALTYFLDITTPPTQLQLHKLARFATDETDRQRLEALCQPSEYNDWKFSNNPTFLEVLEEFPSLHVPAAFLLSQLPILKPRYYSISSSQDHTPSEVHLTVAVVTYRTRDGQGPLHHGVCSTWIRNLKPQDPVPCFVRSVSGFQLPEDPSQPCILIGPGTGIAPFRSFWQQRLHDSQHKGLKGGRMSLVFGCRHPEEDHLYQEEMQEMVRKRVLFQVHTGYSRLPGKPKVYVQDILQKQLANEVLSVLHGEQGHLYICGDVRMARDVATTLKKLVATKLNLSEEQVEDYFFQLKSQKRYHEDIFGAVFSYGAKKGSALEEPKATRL
Protocol: Experimental materials: BV-2 cells (purchased from Shanghai Cell Bank, Chinese Academy of Sciences), DMEM cell culture fluid (Sigma), fetal bovine serum (Gibico), 96-well cell culture plate (Corning), DMSO (Sigma), LPS (Sigma), iNOS activity detection kit (Beyotime), test drug 4-trifluoromethyl-cinnamoyl-4-fluoro-L-phenylalanine prepared in Example 1, and microplate reader.
Then according to the group, the drug or blank culture fluid was added to the corresponding group for culture for 4 hours. Finally, except the blank group, each group was stimulated with LPS with a final concentration of 500 ng/mL for 24 hours. The iNOS activity assay was performed according to the requirements of the iNOS detection kit.

[1] = system: MPTP-induced Parkinsonian mice; experiment: MPTP-induced Parkinsonian mouse rota-rod experiment; type: in vivo, C57BL/6 male mice; details: 2 mg/kg by gavage for 12 days before MPTP (20 mg/kg i.p. x4); tested 4 h, 24 h, 48 h, 72 h after modeling; FIG. 2
Text: Experimental materials: 10-week-old C57BL/6 male mice (Nanjing Qinglongshan Farm), rota-rod treadmill (Beijing Zhongshi Technology), levodopa and MPTP (Sigma), test drug 4-trifluoromethyl-cinnamoyl-4-fluoro-L-phenylalanine prepared in Example 1 (Compound 2 shown), and test drug 4-hydroxy-3-methoxycinnamoyl-L-tyrosine (Compound 1 shown).
Experimental groups: Mice were randomly divided into 5 groups, 10 mice in each group: a blank group, a model group, a 4-hydroxy-3-methoxycinnamoyl-L-tyrosine (Compound 1 shown, 2 mg/kg) group, a 4-trifluoromethyl-cinnamoyl-4-fluoro-L-phenylalanine (Compound 2 shown, 2 mg/kg) group and a levodopa (15 mg/kg) group. Pre-dosing by gavage was carried out for 12 consecutive days. The blank group and the model group were given equal doses of PBS, and modeling was performed on the 13th day. The model group and the drug group were intraperitoneally injected with MPTP (20 mg/kg), once every 2 h, for 4 consecutive injections. After modeling, behavioral tests were carried out. The behavioral performance of mice was tested with a YLS-4C mouse rota-rod treadmill at 4 h, 24 h, 48 h, and 72 h after MPTP modeling. The time from the start of rotation of the rota-rod to the time leaving the rota-rod of the test mice was taken as the latency. The test time was 180 s, and each mouse was tested 3 times to obtain an average value. […]

[2] = system: MCAO ischemia-reperfusion rats; experiment: Rat ischemia-reperfusion (MCAO) in-vivo model with TTC staining; set-up: species or system Male SD rats; details: 2 mg/kg by gavage daily, FIG. 3
Text: Experimental materials: Male SD rats, weighing 250-300 g, provided by the Model Animal Research Center of Nanjing University and raised in the Experimental Animal Center of China Pharmaceutical University; triphenyl tetrazolium chloride (TTC) and butyphthalide purchased from Sigma; test drug 4-trifluoromethyl-cinnamoyl-4-fluoro-L-phenylalanine prepared in Example 1 (Compound 2 shown), and test drug 4-hydroxy-3-methoxycinnamoyl-L-tyrosine (Compound 1 shown).
Experimental method: The rats were randomly divided into 5 groups, i.e., a blank group, a model group (MCAO group), an MCAO+4-hydroxy-3-methoxycinnamoyl-L-tyrosine (Compound 1 shown, 2 mg/kg) group, an MCAO+4-trifluoromethyl-cinnamoyl-4-fluoro-L-phenylalanine (Compound 2 shown, 2 mg/kg) group and an MCAO+positive drug butyphthalide (5 mg/kg) group. After successful modeling, administration of different doses of compounds by gavage was carried out every day for 15 consecutive days. After the administration, brains were harvested, subjected to TTC staining, and photographed and recorded.
The effect is better than that of the positive drug and 4-hydroxy-3-methoxycinnamoyl-L-tyrosine (Compound 1 shown).

[3] = Physicochemical properties: solubility in solvents

For `O=C(/C=C/c1ccc(C(F)(F)F)cc1)N[C@@H](Cc1ccc(F)cc1)C(=O)O` [Compound 2, 4-trifluoromethyl-cinnamoyl-4-fluoro-L-phenylalanine], the IC50 (iNOS) was 110 nM, the “dyskinesia of the Parkinsonian mice (rota-rod)” value [1] was “effectively alleviate the dyskinesia” and the “running time of the Parkinsonian mice (rota-rod latency)” value [1] was “increase the running time”. For the same compound, the “size of cerebral infarction caused by ischemia reperfusion (TTC staining)” value [2] was “effectively reduce the increase in the size of cerebral infarction”, the solubility ([3]; dichloromethane) was “soluble” and the solubility ([3]; methanol, acetone, ethyl acetate) was “easily soluble”. The solubility ([3]; petroleum ether, water) was “insoluble”.
